{"source": "PubChem BioAssay AID2060907", "about": "(Molecular Pharmacology Branch, DTP, NCI, 2025)", "system": "388556-164-R-J1-PDC complex spheroid viability", "test": "Anticancer human tumor 388556-164-R-J1-PDC patient-derived colon adenocarcinoma cell line growth inhibition [RAS]", "conditions": "for pIC50: curve of first compound; for viability, T/C: stronger effect = lower value", "summary_of_the_method": "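Multi-cell-type spheroids: tumor cells plus HUVEC endothelial cells and mesenchymal stem cells. RAS-pathway inhibitors were combined with targeted agents, each dosed in half-log steps down from clinical Cmax, or from 10 microM when Cmax was unknown.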", "key": {"[1]": {"conditions": "second compound 0.000949 µM, first compound 0.00316 µM"}, "[2]": {"conditions": "second compound 0.000949 µM, first compound 0.01 µM"}, "[3]": {"conditions": "second compound 0.000949 µM, first compound 0.0316 µM"}, "[4]": {"conditions": "second compound 0.000949 µM, first compound 0.1 µM"}, "[5]": {"conditions": "second compound 0.000949 µM, first compound 0.316 µM"}, "[6]": {"conditions": "second compound 0.000949 µM, first compound 1 µM"}, "[7]": {"conditions": "second compound 0.003 µM, first compound 0.00316 µM"}, "[8]": {"conditions": "second compound 0.003 µM, first compound 0.01 µM"}, "[9]": {"conditions": "second compound 0.003 µM, first compound 0.0316 µM"}, "[10]": {"conditions": "second compound 0.003 µM, first compound 0.1 µM"}, "[11]": {"conditions": "second compound 0.003 µM, first compound 0.316 µM"}, "[12]": {"conditions": "second compound 0.003 µM, first compound 1 µM"}, "[13]": {"conditions": "second compound 0.00949 µM, first compound 0.00316 µM"}, "[14]": {"conditions": "second compound 0.00949 µM, first compound 0.01 µM"}, "[15]": {"conditions": "second compound 0.00949 µM, first compound 0.0316 µM"}, "[16]": {"conditions": "second compound 0.00949 µM, first compound 0.1 µM"}, "[17]": {"conditions": "second compound 0.00949 µM, first compound 0.316 µM"}, "[18]": {"conditions": "second compound 0.00949 µM, first compound 1 µM"}, "[19]": {"conditions": "second compound 0.03 µM, first compound 0.00316 µM"}, "[20]": {"conditions": "second compound 0.03 µM, first compound 0.01 µM"}, "[21]": {"conditions": "second compound 0.03 µM, first compound 0.0316 µM"}, "[22]": {"conditions": "second compound 0.03 µM, first compound 0.1 µM"}, "[23]": {"conditions": "second compound 0.03 µM, first compound 0.316 µM"}, "[24]": {"conditions": "second compound 0.03 µM, first compound 1 µM"}, "[25]": {"conditions": "second compound 0.0949 µM, first compound 0.00316 µM"}, "[26]": {"conditions": "second compound 0.0949 µM, first compound 0.01 µM"}, "[27]": {"conditions": "second compound 0.0949 µM, first compound 0.0316 µM"}, "[28]": {"conditions": "second compound 0.0949 µM, first compound 0.1 µM"}, "[29]": {"conditions": "second compound 0.0949 µM, first compound 0.316 µM"}, "[30]": {"conditions": "second compound 0.0949 µM, first compound 1 µM"}, "[31]": {"conditions": "second compound 0.3 µM, first compound 0.00316 µM"}, "[32]": {"conditions": "second compound 0.3 µM, first compound 0.01 µM"}, "[33]": {"conditions": "second compound 0.3 µM, first compound 0.0316 µM"}, "[34]": {"conditions": "second compound 0.3 µM, first compound 0.1 µM"}, "[35]": {"conditions": "second compound 0.3 µM, first compound 0.316 µM"}, "[36]": {"conditions": "second compound 0.3 µM, first compound 1 µM"}}, "note": "pIC50: −log10 of the molar value.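 Also: spheroids exposed to compound for 7 days before readout.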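 For viability, T/C in this document: 100% = DMSO vehicle control luminescence.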"}
{"smiles": "C=CC(=O)Nc1cc(Nc2nccc(-c3cn(C)c4ccccc34)n2)c(OC)cc1N(C)CCN(C)C", "note": "+ CCn1c(-c2cc(N3CCN(C)CC3)cnc2C(C)OC)c2c3cc(ccc31)-c1csc(n1)CC(NC(=O)C1CC1C)C(=O)N1CCCC(N1)C(=O)OCC(C)(C)C2", "values": [{"measurement": "pIC50", "setting": "second compound 0.000949 µM", "result": 6.13}, {"measurement": "pIC50", "setting": "second compound 0.003 µM", "result": 6.32}, {"measurement": "pIC50", "setting": "second compound 0.00949 µM", "result": 6.38}, {"measurement": "pIC50", "setting": "second compound 0.03 µM", "result": 7.38}, {"measurement": "pIC50", "setting": "second compound 0.0949 µM", "result": "> 8.50"}, {"measurement": "pIC50", "setting": "second compound 0.3 µM", "result": "> 8.50"}, {"measurement": "viability, T/C", "setting": "[1]", "result": 92.8, "unit": "%"}, {"measurement": "viability, T/C", "setting": "[2]", "result": 92.1, "unit": "%"}, {"measurement": "viability, T/C", "setting": "[3]", "result": 93.5, "unit": "%"}, {"measurement": "viability, T/C", "setting": "[4]", "result": 79.8, "unit": "%"}, {"measurement": "viability, T/C", "setting": "[5]", "result": 60.4, "unit": "%"}, {"measurement": "viability, T/C", "setting": "[6]", "result": 46.4, "unit": "%"}, {"measurement": "viability, T/C", "setting": "[7]", "result": 91.7, "unit": "%"}, {"measurement": "viability, T/C", "setting": "[8]", "result": 90.3, "unit": "%"}, {"measurement": "viability, T/C", "setting": "[9]", "result": 75.3, "unit": "%"}, {"measurement": "viability, T/C", "setting": "[10]", "result": 74, "unit": "%"}, {"measurement": "viability, T/C", "setting": "[11]", "result": 56.4, "unit": "%"}, {"measurement": "viability, T/C", "setting": "[12]", "result": 38.1, "unit": "%"}, {"measurement": "viability, T/C", "setting": "[13]", "result": 79.2, "unit": "%"}, {"measurement": "viability, T/C", "setting": "[14]", "result": 78.9, "unit": "%"}, {"measurement": "viability, T/C", "setting": "[15]", "result": 65.8, "unit": "%"}, {"measurement": "viability, T/C", "setting": "[16]", "result": 66.4, "unit": "%"}, {"measurement": "viability, T/C", "setting": "[17]", "result": 60.5, "unit": "%"}, {"measurement": "viability, T/C", "setting": "[18]", "result": 28.3, "unit": "%"}, {"measurement": "viability, T/C", "setting": "[19]", "result": 62.1, "unit": "%"}, {"measurement": "viability, T/C", "setting": "[20]", "result": 50.8, "unit": "%"}, {"measurement": "viability, T/C", "setting": "[21]", "result": 54.9, "unit": "%"}, {"measurement": "viability, T/C", "setting": "[22]", "result": 45.8, "unit": "%"}, {"measurement": "viability, T/C", "setting": "[23]", "result": 36.1, "unit": "%"}, {"measurement": "viability, T/C", "setting": "[24]", "result": 27.3, "unit": "%"}, {"measurement": "viability, T/C", "setting": "[25]", "result": 39.4, "unit": "%"}, {"measurement": "viability, T/C", "setting": "[26]", "result": 42.7, "unit": "%"}, {"measurement": "viability, T/C", "setting": "[27]", "result": 46.8, "unit": "%"}, {"measurement": "viability, T/C", "setting": "[28]", "result": 33.1, "unit": "%"}, {"measurement": "viability, T/C", "setting": "[29]", "result": 28.2, "unit": "%"}, {"measurement": "viability, T/C", "setting": "[30]", "result": 22.8, "unit": "%"}, {"measurement": "viability, T/C", "setting": "[31]", "result": 32.2, "unit": "%"}, {"measurement": "viability, T/C", "setting": "[32]", "result": 28.5, "unit": "%"}, {"measurement": "viability, T/C", "setting": "[33]", "result": 30.8, "unit": "%"}, {"measurement": "viability, T/C", "setting": "[34]", "result": 25.1, "unit": "%"}, {"measurement": "viability, T/C", "setting": "[35]", "result": 25.7, "unit": "%"}, {"measurement": "viability, T/C", "setting": "[36]", "result": 24, "unit": "%"}]}
{"smiles": "O=C(c1ccc(F)c(F)c1Nc1ccc(I)cc1F)N1CC(O)([C@@H]2CCCCN2)C1", "note": "+ CCn1c(-c2cc(N3CCN(C)CC3)cnc2C(C)OC)c2c3cc(ccc31)-c1csc(n1)CC(NC(=O)C1CC1C)C(=O)N1CCCC(N1)C(=O)OCC(C)(C)C2", "values": [{"measurement": "pIC50", "setting": "second compound 0.000949 µM", "result": 6.88}, {"measurement": "pIC50", "setting": "second compound 0.003 µM", "result": 7.07}, {"measurement": "pIC50", "setting": "second compound 0.00949 µM", "result": 7.44}, {"measurement": "pIC50", "setting": "second compound 0.03 µM", "result": 8.08}, {"measurement": "pIC50", "setting": "second compound 0.0949 µM", "result": "> 8.50"}, {"measurement": "pIC50", "setting": "second compound 0.3 µM", "result": "> 8.50"}, {"measurement": "viability, T/C", "setting": "[1]", "result": 96, "unit": "%"}, {"measurement": "viability, T/C", "setting": "[2]", "result": 91, "unit": "%"}, {"measurement": "viability, T/C", "setting": "[3]", "result": 72.6, "unit": "%"}, {"measurement": "viability, T/C", "setting": "[4]", "result": 58.3, "unit": "%"}, {"measurement": "viability, T/C", "setting": "[5]", "result": 31.8, "unit": "%"}, {"measurement": "viability, T/C", "setting": "[6]", "result": 19.9, "unit": "%"}, {"measurement": "viability, T/C", "setting": "[7]", "result": 97.5, "unit": "%"}, {"measurement": "viability, T/C", "setting": "[8]", "result": 83.3, "unit": "%"}, {"measurement": "viability, T/C", "setting": "[9]", "result": 70.5, "unit": "%"}, {"measurement": "viability, T/C", "setting": "[10]", "result": 46, "unit": "%"}, {"measurement": "viability, T/C", "setting": "[11]", "result": 29.1, "unit": "%"}, {"measurement": "viability, T/C", "setting": "[12]", "result": 19.3, "unit": "%"}, {"measurement": "viability, T/C", "setting": "[13]", "result": 80.9, "unit": "%"}, {"measurement": "viability, T/C", "setting": "[14]", "result": 69.2, "unit": "%"}, {"measurement": "viability, T/C", "setting": "[15]", "result": 50.1, "unit": "%"}, {"measurement": "viability, T/C", "setting": "[16]", "result": 38, "unit": "%"}, {"measurement": "viability, T/C", "setting": "[17]", "result": 24.1, "unit": "%"}, {"measurement": "viability, T/C", "setting": "[18]", "result": 18.7, "unit": "%"}, {"measurement": "viability, T/C", "setting": "[19]", "result": 63.6, "unit": "%"}, {"measurement": "viability, T/C", "setting": "[20]", "result": 45.8, "unit": "%"}, {"measurement": "viability, T/C", "setting": "[21]", "result": 36.9, "unit": "%"}, {"measurement": "viability, T/C", "setting": "[22]", "result": 30.1, "unit": "%"}, {"measurement": "viability, T/C", "setting": "[23]", "result": 19.7, "unit": "%"}, {"measurement": "viability, T/C", "setting": "[24]", "result": 18.6, "unit": "%"}, {"measurement": "viability, T/C", "setting": "[25]", "result": 35, "unit": "%"}, {"measurement": "viability, T/C", "setting": "[26]", "result": 33.2, "unit": "%"}, {"measurement": "viability, T/C", "setting": "[27]", "result": 30.3, "unit": "%"}, {"measurement": "viability, T/C", "setting": "[28]", "result": 18.4, "unit": "%"}, {"measurement": "viability, T/C", "setting": "[29]", "result": 17.9, "unit": "%"}, {"measurement": "viability, T/C", "setting": "[30]", "result": 18.8, "unit": "%"}, {"measurement": "viability, T/C", "setting": "[31]", "result": 28.3, "unit": "%"}, {"measurement": "viability, T/C", "setting": "[32]", "result": 26.1, "unit": "%"}, {"measurement": "viability, T/C", "setting": "[33]", "result": 20.1, "unit": "%"}, {"measurement": "viability, T/C", "setting": "[34]", "result": 16.9, "unit": "%"}, {"measurement": "viability, T/C", "setting": "[35]", "result": 18.4, "unit": "%"}, {"measurement": "viability, T/C", "setting": "[36]", "result": 17, "unit": "%"}]}
